Legend:
Assay in all cases: relative viability (nuclei count vs DMSO), 5 days (fraction); higher = more cells survive
[1] = compound: CC1=CC(=NN1)NC2=CC(=NC(=N2)/C=C/C3=CC=CC=C3)N4CCN(CC4)C + Cc1cc(Nc2cc(N3CCN(C)CC3)nc(Sc3ccc(NC(=O)C4CC4)cc3)n2)n[nH]1 [Tozasertib] (partner 0.1 µM)
Summary of the method: (§1)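 Relative viability is defined as nuclei in treated wells over nuclei in vehicle wells. Duplicate plates were run and medians reported. Lung cancer cell lines in 1536-well plates were dosed by pin tool one day after seeding, with one drug or with a fixed anchor-drug dose plus five library-drug doses (not always all listed) in √10 steps, and nuclei were counted after 5 days.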

Bortezomib + Navitoclax = compound: CC(C)C[C@H](NC(=O)[C@H](Cc1ccccc1)NC(=O)c1cnccn1)B(O)O [Bortezomib] + CC1(C)CCC(c2ccc(Cl)cc2)=C(CN2CCN(c3ccc(C(=O)NS(=O)(=O)c4ccc(N[C@H](CCN5CCOCC5)CSc5ccccc5)c(S(=O)(=O)C(F)(F)F)c4)cc3)CC2)C1 [Navitoclax] (partner 0.5 µM)
Summary of the method: as §1

Obatoclax + Luminespib = compound: COC1=CC(c2cc3ccccc3[nH]2)=N/C1=C\c1[nH]c(C)cc1C [Obatoclax] + CCNC(=O)c1noc(-c2cc(C(C)C)c(O)cc2O)c1-c1ccc(CN2CCOCC2)cc1 [Luminespib] (partner 0.01 µM)
Summary of the method: as §1

Bortezomib + Pemetrexed = compound: CC(C)C[C@H](NC(=O)[C@H](Cc1ccccc1)NC(=O)c1cnccn1)B(O)O [Bortezomib] + Nc1nc2[nH]cc(CCc3ccc(C(=O)N[C@@H](CCC(=O)O)C(=O)O)cc3)c2c(=O)[nH]1 [Pemetrexed] (partner 0.2 µM)
Summary of the method: as §1

Cell Line	relative viability ([1]; first compound 0.08 µM)	relative viability ([1]; first compound 0.253 µM)	relative viability ([1]; first compound 0.8 µM)	relative viability ([1]; first compound 2.53 µM)	relative viability ([1]; first compound 8 µM)	relative viability (Bortezomib + Navitoclax; first compound 0.0002 µM)	relative viability (Bortezomib + Navitoclax; first compound 0.000632 µM)	relative viability (Bortezomib + Navitoclax; first compound 0.002 µM)	relative viability (Bortezomib + Navitoclax; first compound 0.006325 µM)	relative viability (Bortezomib + Navitoclax; first compound 0.02 µM)	relative viability (Obatoclax + Luminespib; first compound 0.01 µM)	relative viability (Obatoclax + Luminespib; first compound 0.03162 µM)	relative viability (Obatoclax + Luminespib; first compound 0.1 µM)	relative viability (Obatoclax + Luminespib; first compound 0.3162 µM)	relative viability (Obatoclax + Luminespib; first compound 1 µM)	relative viability (Bortezomib + Pemetrexed; first compound 0.0002 µM)	relative viability (Bortezomib + Pemetrexed; first compound 0.000632 µM)	relative viability (Bortezomib + Pemetrexed; first compound 0.002 µM)	relative viability (Bortezomib + Pemetrexed; first compound 0.006325 µM)	relative viability (Bortezomib + Pemetrexed; first compound 0.02 µM)
201T	0.973	0.916	0.746	0.388	0.25	1.21	1.19	1.21	1.22	1.23	1.1	1.04	1.06	1.08	1.12	0.338	0.327	0.321	0.353	0.308
A549						1.14	1.22	1.07	0.0316	0.0335										
A-427	0.212	0.136	0.178	0.0979	0.0938	0.91	1.01	0.963	0.988	0.112	0.952	0.962	0.916	0.775	0.674	0.914	0.971	0.968	0.235	0.182
ABC-1	0.191	0.164	0.191	0.207	0.182						0.551	0.555		0.322	0.397					
BEN	0.492	0.533	0.451	0.364	0.38	0.0276	0.0636	0.151	0.0617	0.0356	0.507	0.243		0.26	0.291	0.75	0.806	0.88	0.529	0.373
CAL-12T	0.25	0.303	0.251	0.172	0.143	1.27	1.14	1.26	0.19	0.123	0.493	0.292	0.273	0.122	0.118	1.25	1.26	1.24	1.15	0.123
COR-L23	0.163	0.182	0.148	0.1	0.0908	0.933	1.02	0.528	0.0681	0.0713	0.556	0.638	0.45	0.178	0.115	0.186	0.196	0.201	0.0763	0.0792
COR-L 105	0.372	0.304	0.348	0.248	0.246	0.745	0.786	0.684	0.291	0.253	0.97	0.908	0.724	1.75	0.236	1.03	1.12	1.13	0.494	0.303
Calu-6						0.749	0.882	0.69	0.0841	0.0734										
ChaGo-K-1	0.222	0.227	0.217	0.195	0.172			0.964	0.307	0.2	0.718	0.565	0.487	0.561	0.426	0.265	0.238	0.249	0.267	0.192
EBC-1						0.439	0.299	0.195	0.0921	0.104										
EKVX	0.396	0.451	0.383	0.196	0.104	0.95	1.03	0.978	0.44	0.0945	0.899	0.954	0.979	0.67	0.728	0.373	0.417	0.482	0.216	0.102
EMC-BAC-2	0.282	0.249	0.254	0.234	0.149	1.13	1.2	1.28	0.595	0.171	1.2	1.19	1.16	1.08	1.02	0.415	0.44	0.443	0.326	0.266
EPLC-272H	0.34	0.203	0.273	0.113	0.122			1.06	0.0971	0.0714	0.377	0.235	0.393	0.189	0.168	0.354	0.308	0.157	0.085	0.0797
H3255	0.79	0.71	0.374	0.513	0.297	0.533	0.557	0.557	0.105	0.0892	0.903	0.823	0.899	0.88	0.806	0.6	0.603	0.479	0.378	0.344
HARA	0.111	0.108	0.11	0.0787	0.0585	1.14	1.16	1.12	0.075	0.108	0.889	0.827	0.728	0.692	1.05	0.221	0.178	0.228	0.157	0.13
HCC-15	0.291	0.355	0.18	0.0787	0.0703	0.706	0.681	0.692	0.421	0.116	0.302	0.148	0.267	0.361	0.274	0.213	0.199	0.215	0.13	0.1
HCC-44	0.83	1.05	0.67	0.268	0.146	0.96	0.932	0.94	0.225	0.192	1.07	0.992	0.658	0.65	0.167	0.674	0.723	0.615	0.631	0.256
